“Also recorded” adds a separate entry of the source.
Experiments:
cKit mice [1] = assay: Lineage analysis of engrafted human CD45-expressing cells in mouse bone marrow; format: in vivo
Description: (§1) Presence of human hematopoietic cells was measured by flow cytometry in mouse blood or bone marrow samples. Cells were gated on singlet, live cells. Mouse and human CD45-expressing hematopoietic cells were distinguished by antibodies targeting mouse or human CD45. Engraftment was measured as percent chimerism which was defined as the quantity of human CD45 positive cells divided by the total number of CD45 positive cells (e.g., human and mouse CD45 expressing cells combined). The lineage of human CD45 positive cells was determined using markers for CD19 (e.g., B cells), CD3 (e.g., T cells), CD33 (e.g., myeloid cells), and CD34 (hematopoietic stem/progenitor cells (HSPCs)).
Shown in FIGS. 18A-18B is lineage analysis of engrafted CD45-expressing human cells in mouse bone marrow samples collected at 16 weeks post administration of LT-HSPCs. The lineage of CD45-expressing human leukocytes was evaluated for unedited LT-HSPCs administered at a dose of 0.01×10^6, 0.05×10^6, 0.1×10^6, or 0.25×10^6 cells (FIG. 18A). The lineage of CD45-expressing human leukocytes was also evaluated for LT-HSPCs edited with AAV+RNP either in the presence or absence of i53 (FIG. 18B).
Shown in FIG. 25 is lineage analysis of engrafted CD45-expressing human cells in mouse bone marrow samples collected at 16 weeks post administration of LT-HSPCs. […]

[2] = system: HBB locus in CD34-expressing LT-HSPCs; assay: HDR insertion of AAV GFP donor at HBB locus (GFP fluorescence); format: cell-based, human; details: for HDR efficiency: 0.75 g mRNA encoding i53, 5 μM Nu7441, DM control mRNA, FIG. 6C
Description: Frozen CD34-expressing LT-HSPCs derived from plerixafor (i.e., Mozibil®)+GCSF-dual mobilized peripheral blood obtained from healthy human donors were purchased from a commercial vendor. LT-HSPCs were maintained in culture media comprised of the reagents shown in Table 4 and were incubated at 37° C., 5% carbon dioxide, 4% oxygen. […] 2×10^5 cells were edited with 3 g Cas9 and 3 g gRNA. The target gene sequence (including target sequence with PAM), R02 spacer sequence, and R02 sgRNA sequence are identified in Table 3.
The cells were transfected with a dsDNA homology donor encoding GFP under a SFFV promoter (SEQ ID NO: 60) that was delivered by AAV (SEQ ID NO: 56). […] The HDR efficiency was determined by measuring the level of GFP fluorescence in the cells following electroporation. To determine the effect of 53BP1 inhibition on HDR efficiency, the 53BP1 inhibitor i53 was introduced as an mRNA-encoded protein to the cells during electroporation with Cas9/gRNA RNP and AAV DNA that serves as a donor for homology directed repair.
The effect of 53BP1 inhibition on HDR efficiency was compared to other mRNA-encoded proteins that inhibit the NHEJ pathway. These included the proteins CYREN1 and CYREN2 that inhibit Ku70/80, a heterodimer that binds DNA blunt ends to prevent processing of 3′ single-stranded DNA tails necessary for HDR repair. Cells were electroporated with RNP, an AAV-GFP homology donor and mRNA encoding either i53 (mRNA ORF shown in SEQ ID NO: 69), CYREN1, or CYREN2.
The effect of treatment with i53 and Nu7441 was compared for improving efficiency of HDR repair of the HBB locus. Cells were treated with different doses of Nu7441 or with mRNA encoding i53 (ORF shown by SEQ ID NO: 69).

cKit mice [3] = assay: Engraftment (percent chimerism) of edited human LT-HSPCs in irradiated mice; format: in vivo; details: for chimerism in bone marrow: FIG. 24B
Description: The cells were administered by intravenous injection to cKit mice at 2 days following electroporation. Recipient mice were treated with sublethal irradiation (100 cGy) at 1 day prior to administration of LT-HSPCs to eliminate hematopoietic cells in the bone marrow and enable engraftment of the donor cells. Animals were evaluated for presence of human hematopoietic cells in peripheral blood at 8 and 16 weeks following LT-HSPC administration. The bone marrow was also evaluated for engraftment and maintenance of the HBB gene-edit at 16 weeks following LT-HSPC administration.
as §1
Human LT-HSPCs were administered to mice following electroporation with Cas9/gRNA and AAV encoding a sickle cell mutation (E7V) as shown in FIG. 21. LT-HSPCs were mobilized from healthy donors using plerixafor. LT-HSPCs were gene-edited following 2 days in culture. […] 1×10^6 cells were edited with 20 g Cas9 and 20 g gRNA.
A dose of 0.5×10^6 cells was administered by intravenous injection to cKit mice at 2 days following electroporation. Recipient mice were treated with sublethal irradiation (100 cGy) at 1 day prior to administration of LT-HSPCs to eliminate hematopoietic cells in the bone marrow and enable engraftment of the donor cells. Animals were evaluated for presence of human hematopoietic cells in peripheral blood at 8 and 16 weeks following LT-HSPC administration. The bone marrow was also evaluated for engraftment and maintenance of the HBB gene-edit at 16 weeks following LT-HSPC administration.

[4] = system: AAVS1 locus in hTERT RPE-1 cells; assay: HDR insertion of AAV GFP donor at AAVS1 locus in hTERT RPE-1 cells; format: cell-based, human; details: mRNA encoding i53; AAV 25,000 MOI; FIG. 7
Description: RPE1 cells were lipofected with RNP comprised of Cas9 protein and gRNA targeting the AAVS1 locus (target sequence shown in SEQ ID NO: 3; spacer sequence shown in SEQ ID NO: 4). Cells were edited with 1 g Cas9 and 1 g gRNA. Cells were infected with AAV containing homology donor DNA encoding GFP (DJ serotype) as well as mRNA encoding i53 (mRNA ORF shown in SEQ ID NO: 69). […] HDR efficiency was determined by measuring the level of GFP fluorescence in the cells following gene-editing.

[5] = system: HBB gene locus in CD34-expressing LT-HSPCs; assay: HDR efficiency at HBB gene with R02 RNP+AAV.307 and DNA-PK inhibitors, NGS; format: cell-based, human; details: 1 μg i53 mRNA; R02 RNP+AAV.307
Description: Editing was performed as described above. However, the cells were electroporated with AAV.307 administered 1 hour prior to electroporation at a dose of 10,000 MOI. The cells were electroporated with compound 296 at a concentration ranging from 0.005 μM to 10 μM, with compound 984 at a concentration ranging from 0.005 μM to […], or with 1 μg i53 mRNA. Negative control cells were electroporated with RNP+AAV only or RNP only.
Edited cells were evaluated for viability as described above, and for incorporation of gene-edits at 2 days post-electroporation. […] The frequency of INDELs induced at the R02 cut site was also evaluated by NGS analysis.

Compound | lineage of human leukocytes in bone marrow (cKit mice [1]; 16 weeks, compared to treatment with i53, FIG. 25) | HDR efficiency [2] | chimerism in blood, fold increase over RNP+AAV alone (cKit mice [3]; 8 and 16 weeks, 5 μM Nu7441, FIG. 23B) | chimerism in bone marrow (cKit mice [3]; 16 weeks, AAV.304) | chimerism in blood (cKit mice [3]; both 8 and 16 weeks, 5 μM Nu7441, AAV.304, FIG. 23B) | HDR efficiency over AAV alone [4] | lineage distribution of engrafted cells (cKit mice [1]; bone marrow 16 weeks, edited vs un-edited LT-HSPCs, FIG. 18B) | HDR efficiency vs RNP+AAV-only ([2]; i53 mRNA 0.5, 1, 2 g (FIG. 6A) or 0.3 g, 1 g (FIG. 6B), CYREN1 or CYREN2 mRNA, any dose of XL413 (data not shown)) | HDR efficiency, fold increase over RNP+AAV-only ([2]; mRNA encoding i53, AAV GFP donor 5,000 MOI, FIG. 6A) | percent chimerism in bone marrow (cKit mice [3]; 16 weeks, 0.25×10^6 LT-HSPCs, AAV.307, FIG. 16) | levels of chimerism in blood (cKit mice [3]; blood 8 and 16 weeks, 0.5×10^6 cells, AAV.304, FIG. 23B) | level of HDR repair [5]
O=c1cc(N2CCOCC2)oc2c(-c3cccc4c3sc3ccccc34)cccc12 [Nu7441] | greater proportion of CD34-expressing cells and myeloid cells | comparable increase in HDR efficiency | 2.5 fold | higher than RNP+AAV alone | approximately 25% |  |  |  |  |  |  | 
i53: polypeptide inhibitor of 53BP1 (SEQ ID NO: 70), delivered as mRNA (ORF SEQ ID NO: 69) |  | comparable increase in HDR efficiency |  | comparable to RNP+AAV alone |  | increase in HDR efficiency | no gross changes in lineage distribution | improved HDR efficiency; also recorded: increased HDR efficiency | approximately 1.3 fold | no further decrease in chimerism | comparable to RNP+AAV alone | 59%

From patent publication US12653860B2, “Compositions and methods for editing beta-globin for treatment of hemaglobinopathies” (Vertex Pharmaceuticals Incorporated, priority 2019, dated 2026)
